Data as given in patent publication US11860174B2, “Anti-cannabidiol antibody and uses thereof” (BOMI, LLC, priority 2017, dated 2024).

Molecular target: T1, human CB2 receptors (Homo sapiens, UniProt P34972)
T1 construct: expressed in transfected cells; host or cells: CHO cells (membrane fraction)
Assay: CHO-CB2 radioligand displacement binding (filtration)
Conditions: membranes of CB2 cells, Cheng & Prusoff, n = 3 or 4
Description: CHO cells and membrane preparation. These were stably transfected with cDNA encoding human CB2 receptors. […] Cells were maintained at 37° C. and 5% CO2 in DMEM (f-12 HAM) with 2 mm Glutamine, Geneticin (600 μg ml−1) and Hygromycin (300 μg ml−1). […] CHO cells were suspended in 50 mm Tris buffer (pH 7.4) and 0.32 m sucrose and homogenized with an Ultra-Turrex homogenizer. The homogenate was diluted with 50 mm Tris buffer (pH 7.4) and centrifuged at 50,000×g for 1 hour to isolate the membranes.
CHO—CB2 binding. […] Binding was initiated by the addition of cell membranes (20-30 μg protein). Assays were carried out at 30° C. for 90 minutes before termination by addition of ice-cold wash buffer (50 mm Tris buffer, 1 mg ml−1 BSA) and vacuum filtration using a 12-well sampling manifold (Brandel Cell Harvester) and Whatman GF/B glass-fibre filters that had been soaked in wash buffer at 4° C. for 24 hours. Each reaction tube was washed three times with a 4 ml aliquot of buffer. The filters were oven-dried for 60 minutes and then placed in 5 ml of scintillation fluid (Ultima Gold XR, Packard). Radioactivity was quantified by liquid scintillation spectrometry. Specific binding was defined as the difference between the binding that occurred in the presence and absence of 1 μm reference cannabidiol. Protein assays were performed using a Bio-Rad Dc kit. […] […] Competitive binding curves were fitted with minimum values for displacement of radio ligand from specific binding sites constrained to zero.
Additionally, binding of an MCA, described herein, was tested for this reference sample. The resulting displacement and binding values were used as a reference standard against which 26 CBD samples (acquired from Natural Hemp Solutions, Atlanta Ga.) were compared.

[1] = labelled cannabinoid [3H]-CP55940

T1 sequence (P34972 whole entry): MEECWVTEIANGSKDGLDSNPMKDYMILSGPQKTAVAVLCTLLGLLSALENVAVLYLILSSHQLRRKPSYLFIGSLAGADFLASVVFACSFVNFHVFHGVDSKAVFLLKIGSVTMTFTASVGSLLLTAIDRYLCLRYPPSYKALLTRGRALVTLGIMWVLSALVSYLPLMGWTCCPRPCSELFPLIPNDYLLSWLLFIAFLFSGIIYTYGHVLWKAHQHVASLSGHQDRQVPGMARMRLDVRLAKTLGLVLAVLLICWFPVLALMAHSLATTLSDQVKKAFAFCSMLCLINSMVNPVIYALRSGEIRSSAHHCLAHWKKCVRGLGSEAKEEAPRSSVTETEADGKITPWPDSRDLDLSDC

| Structure (SMILES) | Ki [1] [nM] | Ki (labelled cannabinoid [3H]-W1N55212-2) [nM] |
| --- | --- | --- |
| COc1ccc(C(=O)c2c(C)n(CCN3CCOCC3)c3cc(I)ccc23)cc1 [AM630] | 31.2 ± 12.4 | 37.5 ± 15.4 |
| CCCCCCC(C)(C)c1cc(OC)c2c(c1)OC(C)(C)[C@@H]1CC=C(C)C[C@@H]21 [Sample L759633] | 6.4 ± 2.2 |  |
| C=C1CC[C@@H]2[C@@H](C1)c1c(OC)cc(C(C)(C)CCCCCC)cc1OC2(C)C [Sample L759656] | 11.8 ± 2.5 |  |
